# Test: Binding affinity to NL63-CoV main protease by FRET assay
# Parameters: species or system Human coronavirus NL63
smiles,measurement,value
CC(C)(C)[C@H](NC(=O)C(F)(F)F)C(=O)N1C[C@H]2[C@@H]([C@H]1C(=O)N[C@H](C#N)C[C@@H]1CCNC1=O)C2(C)C,Ki,0.226 µM
